Among the data in US8987252B2, “Aryloxy- and heteroaryloxy-substituted tetrahydrobenzazepines and use thereof to block reuptake of norepinephrine, dopamine, and serotonin” (Albany Molecular Research, Inc., priority 2007, dated 2015) are melting point values, retold here.

In general, melting point refers to the temperature of the solid-liquid transition.

Structures can show the parent of a compound that is named as a salt.

For the molecule `CN1CCC(Oc2ccc3ccccc3c2)c2ccc(-c3cccnn3)cc2C1` (centres unmarked) (as salt: tartrate) [Example 1, 2-methyl-5-(naphthalen-2-yloxy)-8-(pyridazin-3-yl)-2,3,4,5-tetrahydro-1H-benzo[c]azepine], the melting point fell in the range of 122 to 124 °C. To `CN1CCC(Oc2ccc(Cl)cc2)c2ccc(-c3cccnn3)cc2C1` (centres unmarked) (as salt: tartrate) [Example 2, 5-(4-chlorophenoxy)-2-methyl-8-(pyridazin-3-yl)-2,3,4,5-tetrahydro-1H-benzo[c]azepine] belongs 106 to 108 °C; to `Cc1ccc(OC2CCN(C)Cc3cc(-c4cccnn4)ccc32)cc1` (centres unmarked) (as salt: tartrate) [Example 3, 2-methyl-8-(pyridazin-3-yl)-5-(p-tolyloxy)-2,3,4,5-tetrahydro-1H-benzo[c]azepine], 104 to 106 °C; to `CN1CCC(Oc2ccc(OC(F)(F)F)cc2)c2ccc(-c3cccnn3)cc2C1` (centres unmarked) (as salt: tartrate) [Example 4, 2-methyl-8-(pyridazin-3-yl)-5-(4-(trifluoromethoxy)phenoxy)-2,3,4,5-tetrahydro-1H-benzo[c]azepine], 104 to 106 °C.

For the molecule `CN1CCC(Oc2cc(F)cc(F)c2)c2ccc(-c3cccnn3)cc2C1` (centres unmarked) (as salt: tartrate) [Example 5, 5-(3,5-difluorophenoxy)-2-methyl-8-(pyridazin-3-yl)-2,3,4,5-tetrahydro-1H-benzo[c]azepine], the melting point is 94 to 96 °C. Under `CN1CCC(Oc2ccc(C#N)cc2)c2ccc(-c3cccnn3)cc2C1` (centres unmarked) (as salt: tartrate) [Example 6, 4-(2-Methyl-8-(pyridazin-3-yl)-2,3,4,5-tetrahydro-1H-benzo[c]azepin-5-yloxy)benzonitrile] stands 94 to 96 °C. Under `CN1CCC(Oc2ccc(Cl)c(Cl)c2)c2ccc(-c3cccnn3)cc2C1` (centres unmarked) (as salt: tartrate) [Example 7, 5-(3,4-Dichlorophenoxy)-2-methyl-8-(pyridazin-3-yl)-2,3,4,5-tetrahydro-1H-benzo[c]azepine] stands 102 to 104 °C; under `CN1CCC(Oc2ccc(F)c(F)c2)c2ccc(-c3cccnn3)cc2C1` (centres unmarked) (as salt: tartrate) [Example 8, 5-(3,4-Difluorophenoxy)-2-methyl-8-(pyridazin-3-yl)-2,3,4,5-tetrahydro-1H-benzo[c]azepine], 100 to 102 °C. To `CN1CCC(Oc2ccc(F)cc2F)c2ccc(-c3cccnn3)cc2C1` (centres unmarked) (as salt: tartrate) [Example 9, 5-(2,4-Difluorophenoxy)-2-methyl-8-(pyridazin-3-yl)-2,3,4,5-tetrahydro-1H-benzo[c]azepine] belongs 98 to 100 °C. On to `CN1CCC(Oc2ccccc2)c2ccc(-c3cccnn3)cc2C1` (centres unmarked) (as salt: tartrate) [Example 10, 2-methyl-5-phenoxy-8-(pyridazin-3-yl)-2,3,4,5-tetrahydro-1H-benzo[c]azepine], for which the melting point fell in the range of 98 to 100 °C. With `CN1CCC(Oc2cccnc2)c2ccc(-c3cccnn3)cc2C1` (centres unmarked) (as salt: tartrate) [Example 11, 2-methyl-8-(pyridazin-3-yl)-5-(pyridin-3-yloxy)-2,3,4,5-tetrahydro-1H-benzo[c]azepine], the melting point was 120 to 123 °C. Under `CN1CCC(Oc2ccccc2F)c2ccc(-c3cccnn3)cc2C1` (centres unmarked) (as salt: tartrate) [Example 12, 5-(2-fluorophenoxy)-2-methyl-8-(pyridazin-3-yl)-2,3,4,5-tetrahydro-1H-benzo[c]azepine] stands 96 to 98 °C. To `CN1CCC(Oc2cccc(F)c2)c2ccc(-c3cccnn3)cc2C1` (centres unmarked) (as salt: tartrate) [Example 13, 5-(3-fluorophenoxy)-2-methyl-8-(pyridazin-3-yl)-2,3,4,5-tetrahydro-1H-benzo[c]azepine] belongs 96 to 98 °C. Under `CN1CCC(Oc2cc(F)cc(F)c2)c2ccc(-c3cccnn3)cc2C1` (centres unmarked) (as salt: tartrate) [Example 14, 5-(3,5-difluorophenoxy)-2-methyl-8-(pyridazin-3-yl)-2,3,4,5-tetrahydro-1H-benzo[c]azepine] stands 120 to 122 °C; under `CN1CCC(Oc2cccc3ccccc23)c2ccc(-c3cccnn3)cc2C1` (centres unmarked) (as salt: tartrate) [Example 15, 2-Methyl-5-(naphthalen-1-yloxy)-8-(pyridazin-3-yl)-2,3,4,5-tetrahydro-1H-benzo[c]azepine], 100 to 102 °C; under `CN1CCC(Oc2ccc3ccccc3c2)c2ccc(-c3cccnn3)cc2C1` (centres unmarked) (as salt: tartrate) [Example 18, 5-(naphthalen-2-yloxy)-2-methyl-8-(pyridazin-3-yl)-2,3,4,5-tetrahydro-1H-benzo[c]azepine], 120 to 122 °C.

In the case of `Cc1ccc(-c2ccc3c(c2)CNCCC3Oc2ccccc2)nn1` (centres unmarked) (as salt: tartrate) [Example 32, 8-(6-methylpyridazin-3-yl)-5-phenoxy-2,3,4,5-tetrahydro-1H-benzo[c]azepine], the melting point was 115 to 118 °C.

In turn, `CN1CCC(Oc2ccc3cccnc3c2)c2ccc(-c3cccnn3)cc2C1` (centres unmarked) (as salt: tartrate) [Example 33, 2-methyl-8-(pyridazin-3-yl)-5-(quinolin-7-yloxy)-2,3,4,5-tetrahydro-1H-benzo[c]azepine] yielded a melting point of 120 to 122 °C. To `CN1CCC(Oc2ccccc2Cl)c2ccc(-c3cccnn3)cc2C1` (centres unmarked) (as salt: tartrate) [Example 34, 5-(2-chlorophenoxy)-2-methyl-8-(pyridazin-3-yl)-2,3,4,5-tetrahydro-1H-benzo[c]azepine] belongs 100 to 102 °C. The molecule `CN1CCC(Oc2ccccc2Cl)c2ccc(-c3cccnn3)cc2C1` (centres unmarked) (as salt: tartrate) [Example 35, 5-(2-chlorophenoxy)-2-methyl-8-(pyridazin-3-yl)-2,3,4,5-tetrahydro-1H-benzo[c]azepine] gave a melting point of 104 to 106 °C. To `CN1CCC(Oc2ccccc2)c2ccc(-c3ncccn3)cc2C1` (centres unmarked) (as salt: tartrate) [Example 49, 2-Methyl-5-phenoxy-8-(pyrimidin-2-yl)-2,3,4,5-tetrahydro-1H-benzo[c]azepine] belongs 108 to 110 °C; to `CN1CCC(Oc2cccc(F)c2F)c2ccc(-c3cccnn3)cc2C1` (centres unmarked) (as salt: tartrate) [Example 51, 5-(2,3-difluorophenoxy)-2-methyl-8-(pyridazin-3-yl)-2,3,4,5-tetrahydro-1H-benzo[c]azepine], 112 to 114 °C; to `CN1CCC(Oc2cccc(C#N)c2)c2ccc(-c3cccnn3)cc2C1` (centres unmarked) (as salt: tartrate) [Example 52, 5-(3-cyanophenoxy)-2-methyl-8-(pyridazin-3-yl)-2,3,4,5-tetrahydro-1H-benzo[c]azepine], 113 to 115 °C. `CN1CCC(Oc2ccc(C#N)cc2)c2ccc(-c3cccnn3)cc2C1` (centres unmarked) (as salt: tartrate) [Example 53, 5-(4-cyanophenoxy)-2-methyl-8-(pyridazin-3-yl)-2,3,4,5-tetrahydro-1H-benzo[c]azepine] gave a melting point of 110 to 112 °C.

Consider `CN1CCC(Oc2cc(F)ccc2F)c2ccc(-c3cccnn3)cc2C1` (centres unmarked) (as salt: tartrate) [Example 54, 5-(2,5-difluorophenoxy)-2-methyl-8-(pyridazin-3-yl)-2,3,4,5-tetrahydro-1H-benzo[c]azepine], for which the melting point fell in the range of 102 to 104 °C.

As for `CN1CCC(Oc2c(F)cccc2F)c2ccc(-c3cccnn3)cc2C1` (centres unmarked) (as salt: tartrate) [Example 55, 5-(2,6-difluorophenoxy)-2-methyl-8-(pyridazin-3-yl)-2,3,4,5-tetrahydro-1H-benzo[c]azepine], the melting point lay in the range of 98 to 100 °C.
